Experimental data published in ChEMBL document CHEMBL1152779, “Synthesis and applications of polyamine amino acid residues: improving the bioactivity of an analgesic neuropeptide, neurotensin” (J Med Chem, 2009).
Active and inactive are the calls of the source. No cut-off for these calls is given here. Numbered stars: 1 amine (or outer) side, 2 acyl side, 3 side chain; on linkers, the order of the positions; unused ones are H or OH. Square brackets hold non-standard residues; d marks the D form. Peptide text beside a SMILES is read from it. X1 = NCCCNCCCCNCCCNCCCNCCCC[C@H](N[*:1])C(=O)[*:2]; X2 = O=C([C@H](Cc1cccc2cc[nH]c12)N[*:1])[*:2]; NMeR = CN[C@@H](CCCNC(=N)N)C(=O)O; Tle = CC(C)(C)[C@H](N)C(=O)O

Columns and labels:
Mus musculus [1] = assay: Analgesic activity against formalin-induced paw pain in mouse assessed as effect on duration of paw licking at 4 mg/kg, ip 1 hr before formalin challenge; assay type: functional, organism-based; set-up: dose 4 mg/kg
Mus musculus [2] = assay: Analgesic activity against formalin-induced paw pain in mouse assessed as elimination of inflammatory phase at 4 mg/kg, ip 1 hr before formalin challenge; assay type: functional, organism-based; set-up: dose 4 mg/kg
[3] = target: Neurotensin receptor type 1 (Homo sapiens, UniProt P30989); assay: Binding affinity to human recombinant NTS1 in HEK293T cells by competitive binding assay; assay type: cell-based, HEK-293T
Neurotensin receptor type 1, sequence (P30989 whole entry): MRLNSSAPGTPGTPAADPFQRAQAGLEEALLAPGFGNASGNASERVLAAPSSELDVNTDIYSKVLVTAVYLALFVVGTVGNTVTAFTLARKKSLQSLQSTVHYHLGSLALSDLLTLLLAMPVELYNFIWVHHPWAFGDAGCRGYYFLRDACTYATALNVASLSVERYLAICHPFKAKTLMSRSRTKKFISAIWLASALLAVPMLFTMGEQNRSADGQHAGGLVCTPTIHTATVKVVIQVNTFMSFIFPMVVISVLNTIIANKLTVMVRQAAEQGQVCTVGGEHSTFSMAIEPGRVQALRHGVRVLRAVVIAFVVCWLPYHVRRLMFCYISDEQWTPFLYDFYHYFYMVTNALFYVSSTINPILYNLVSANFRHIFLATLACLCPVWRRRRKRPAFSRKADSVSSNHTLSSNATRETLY

Kd [3] [nM]	SMILES	Activity (Mus musculus [1])	Activity (Mus musculus [2])
	CC[C@H](C)[C@H](NC(=O)[C@H](Cc1ccc(O)cc1)NC(=O)[C@@H]1CCCN1C(=O)[C@H](CCCCN)NC(=O)[C@H](CCCCN)NC(=O)[C@H](CCCCNCCCNCCCNCCCCNCCCN)NC(C)=O)C(=O)N[C@@H](CC(C)C)C(=O)O (Ac-[X1]KKPYIL-OH)	Active	Active
1.55	CN[C@@H](CCCN=C(N)N)C(=O)N[C@@H](CCCCN)C(=O)N1CCC[C@H]1C(=O)N[C@@H](Cc1cccc2cc[nH]c12)C(=O)N[C@H](C(=O)N[C@@H](CC(C)C)C(=O)O)C(C)(C)C (H-[NMeR]KP[X2][Tle]L-OH)		
150	CC[C@H](C)[C@@H]1NC(=O)[C@H](Cc2ccc(O)cc2)NC(=O)[C@@H]2CCCN2C(=O)[C@H](CCCCN)NC(=O)[C@H](CCCCN)NC(=O)[C@H](CC(C)C)NC(=O)[C@H]([C@@H](C)CC)NC(=O)[C@H](Cc2ccc(O)cc2)NC(=O)[C@@H]2CCCN2C(=O)[C@H](CCCCN)NC(=O)[C@H](CCCCN)NC(=O)[C@H](CC(C)C)NC1=O (cyclo(ILKKPYILKKPY))		
